Assay results published in patent publication US12459951B2, “Compounds that interact with RAS superfamily proteins for treatment of cancers, inflammatory diseases, rasopathies, and fibrotic disease” (SHY Therapeutics, LLC, priority 2022, dated 2025).
Read-outs that look alike come from different tables or passages of the source.

What was measured:
A375 (wild type Kras) = experiment: Proliferation Assay (Cell Viability Assay); type: cell-based; settings: Homo sapiens, A-375
Description: (§1) Cell lines: these Human tumor-derived cell lines were purchased from American Type Culture Collection. Human tumor-derived pancreatic cancer cell line MiaPaca-2 (expressing KRAS G12C mutant) and Panc-1 (expressing KRas G12D mutant), and Human non-small cell lung cancer (NSCLC) cell line A549 (expressing KRas G12S mutant), and Human melanoma cell line A375 (wild type Kras) were grown in complete DMEM-High Glucose medium. Human tumor-derived pancreatic cancer cell lines SU86.86 (expressing KRas G12D mutant), BxPC3 (expressing wild type K-Ras), and Human non-small cell lung cancer (NSCLC) cell lines NCI-H441 (expressing KRas G12S mutant), NCI-H1975 (expressing wild type KRas), NCI-H358 (expressing KRas G12C mutant), NCI-H1299 (expressing NRas Q61H mutant), and Human colon cancer cell line SW-620 (expressing KRas G12V mutant), Human triple negative breast cancer cell line HCC-1806 (expressing wild type KRas), and Human tumor-derived multiple myeloma cell line MM.1R (expressing wild type KRAS), were grown in RPMI 1640 medium. Human tumor-derived breast cancer cell line BT-549 (expressing wild type KRAS) was grown in RPMI 1640 medium in the presence of 11.8U insulin. Human tumor-derived pancreatic cancer cell line HPAF-II (expressing KRas G12D mutant), Human triple negative breast cancer cell line BT-20 (expressing wild type KRas), and Human colon cancer cell line LS123 (expressing KRas G12S mutant), were grown in EMEM medium. Human tumor-derived pancreatic cancer cell line CF-PAC1 (expressing KRas G12V mutant) was frown in IMDM medium, and Human colon cancer cell line HT29 (expressing wild type KRas) was grown in McCoy's 5A medium. The colon cancer cell line GP2d (expressing KRas G12D mutant) was purchased from MilliporeSigma and grown in DMEM-High Glucose medium. All cell lines were supplemented with penicillin (100 U/mL), streptomycin (100 μg/mL), and 10% heat-inactivated FBS at 37° C. in a humidified incubator with 5% CO2.
(§2) Method: Cells were plated at 2000 to 5000 cells/well density in 96-wells plate and cultured overnight. Small molecules that were tested were added to the cells in the final concentration of 10 μM in the presence of 0.3% DMSO and 10% FBS, and incubated for 2-4 days at 37° C. in a humidified incubator with 5% CO2. For IC50 value determination, serial dilutions of compounds were added to cells under the same conditions.
(§3) Assay: At the end of the incubation period, cell viability was determined using the CellTiter 96® Aqueous One Solution Cell Proliferation Assay according to manufacturer specifications (Promega, Madison, WI). The percentage of small molecules inhibition of cellular proliferation was calculated from raw data.

[1] = test system: BT-549 (expressing wild type KRAS); experiment: Proliferation Assay (Cell Viability Assay); type: cell-based; settings: Homo sapiens
Description: as §1, §2, §3

[2] = test system: GP2d (expressing KRas G12D mutant); experiment: Proliferation Assay (Cell Viability Assay); type: cell-based; settings: Homo sapiens
Description: as §1, §2, §3

[3] = test system: MM.1R (expressing wild type KRAS); experiment: Proliferation Assay (Cell Viability Assay); type: cell-based; settings: Homo sapiens, read-out: MM.1R IC50 (nM) Multiple Myloma
Description: as §1, §2, §3

[4] = test system: NCI-H358 (expressing KRas G12C mutant); experiment: Proliferation Assay (Cell Viability Assay); type: cell-based; settings: Homo sapiens
Description: as §1, §2, §3

cdc42 = biological target: T1, cdc42 (Homo sapiens, UniProt P60953); experiment: Cdc42 GTP Binding Domain Inhibition Assay; settings: read-out: Cdc42: % inh.
T1 construct: made in house
T1 sequence (P60953 whole entry, the tested form may be a part): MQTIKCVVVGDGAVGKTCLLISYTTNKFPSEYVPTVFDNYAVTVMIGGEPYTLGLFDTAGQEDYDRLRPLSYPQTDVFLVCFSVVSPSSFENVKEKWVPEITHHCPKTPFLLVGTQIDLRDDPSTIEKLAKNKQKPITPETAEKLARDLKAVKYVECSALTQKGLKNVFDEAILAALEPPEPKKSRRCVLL
Description: Protocol for Cdc42 and Rheb GTP Binding Domain Inhibition Assay
The following method was developed as specific assay for cdc42 and Rheb proteins.
• 25 mM Tris-HCl, pH 7.4 • 27 mM KCl • 137 mM NaCl • 1 mM MgCl2 • 1 mM DTT Buffer-II: • 50 mM Tris-HCl, pH 7.0 • 1 mM MgCl2 • 1 mM DTT
The small GTPases proteins cdc42 and Rheb were expressed as His-tagged proteins. For the assay, the cdc42 and Rheb purified small GTPases proteins were diluted in Buffer-I or Buffer-II to a final concentration of 10-30 μg/mL. 200 μL of each diluted protein was added to a nickel-coated 96-well plate and incubated overnight at […]. Then the protein solution was discarded and 200 μL of Buffer-I or Buffer-II was added to each well in the presence of 1% DMSO. Compounds to be tested were added to the protein-coated wells at final concentration of 20 μM, and incubated for 3 hours at room temperature with and without 10-30 μg/mL of Sos added to the final hour of the incubation. When performing IC50 measurements a serial dilution of all tested concentrations was added. Then Cy3-GTP or Cy5-GTP was added to each well to a final concentration of 100 nM. The labeled GTP was incubated for 45 minutes at room temperature. Following GTP incubation, wells were washed 3× in Buffer-I or Buffer-II and 200 μL of Buffer-I or Buffer-II was added to each well. Following washes, the amount of bound labeled-GTP was measured using a SpectraMax M3 (Molecular Devices).

[5] = Proliferation assay, A375, read-out: A375 IC50 (nM) Melanoma
[6] = BT-549, Proliferation assay, BT549, read-out: BT549 IC50 (nM) TNBC
[7] = Proliferation assay, read-out: GP2d IC50 (nM) Colorectal
[8] = Proliferation assay, NCI-H358, read-out: NCI-H358 IC50 (nM) NSCLC

IC50 (A375 (wild type Kras); A375, melanoma, KRas WT, read-out: Proliferation assay IC50)	IC50 (A375 (wild type Kras); [5])	IC50 [1, 6]	IC50 ([1]; BT-549, Breast (TNBC), KRas WT, read-out: Proliferation assay IC50)	IC50 [3]	IC50 ([4]; NCI-H358, NSCLC, KRas G12C, read-out: Proliferation assay IC50)	IC50 [4, 8]	inhibition at 20 µM (cdc42)	SMILES	IC50 [2, 7]	IC50 ([2]; colon, KRas G12D, read-out: Proliferation assay IC50)
< 150 nM	> 50 nM	> 50 nM	< 150 nM	1 to 10 nM	< 150 nM	10 to 50 nM	50 to 75%	COc1cc(Nc2nc(-c3nccn3C)nn3cc(-c4ccn(C(C)C)n4)c(C)c23)ncn1 [Compound 6, 6-(1-Isopropyl-1H-pyrazol-3-yl)-N-(6-methoxypyrimidin-4-yl)-5-methyl-2-(1-methyl-1H-imidazol-2-yl)pyrrolo[2,1-f][1,2,4]triazin-4-amine]	> 50 nM	150 to 500 nM
							76 to 100%	Cc1c(-c2ccn(C(C)C)n2)cn2nc(-c3nccn3C)nc(Nc3nccn3C)c12 [Compound 93, 6-(1-Isopropyl-1H-pyrazol-3-yl)-5-methyl-N,2-bis(1-methyl-1H-imidazol-2-yl)pyrrolo[2,1-f][1,2,4]triazin-4-amine]		
							26 to 49%	COc1cc(Nc2nc(-c3nccn3C)nn3cc(-c4ccccn4)c(C)c23)ncn1 [Compound 94, N-(6-Methoxypyrimidin-4-yl)-5-methyl-2-(1-methyl-1H-imidazol-2-yl)-6-(pyridin-2-yl)pyrrolo[2,1-f][1,2,4]triazin-4-amine]		
							50 to 75%	COc1ccnc(Nc2nc(-c3nccn3C)nn3cc(-c4ccn(C(F)F)n4)c(C)c23)n1 [Compound 95, 6-(1-(Difluoromethyl)-1H-pyrazol-3-yl)-N-(4-methoxypyrimidin-2-yl)-5-methyl-2-(1-methyl-1H-imidazol-2-yl)pyrrolo[2,1-f][1,2,4]triazin-4-amine]		
	> 50 nM	10 to 50 nM		< 1 nM		> 50 nM		Cc1c(-c2ccn(C)n2)cn2nc(-c3nccn3C)nc(Nc3cc4n(n3)CCC4)c12 [Compound 100, N-(5,6-Dihydro-4H-pyrrolo[1,2-b]pyrazol-2-yl)-5-methyl-2-(1-methyl-1H-imidazol-2-yl)-6-(1-methyl-1H-pyrazol-3-yl)pyrrolo[2,1-f][1,2,4]triazin-4-amine]	10 to 50 nM	
	1 to 10 nM	1 to 10 nM		< 1 nM		1 to 10 nM		COc1ccnc(Nc2nc(-c3nccn3C)nn3cc(-c4ccn(C)n4)c(C)c23)c1 [Compound 102, N-(4-Methoxypyridin-2-yl)-5-methyl-2-(1-methyl-1H-imidazol-2-yl)-6-(1-methyl-1H-pyrazol-3-yl)pyrrolo[2,1-f][1,2,4]triazin-4-amine]	10 to 50 nM	
	> 50 nM	10 to 50 nM		< 1 nM		> 50 nM		Cc1c(-c2ccn(C)n2)cn2nc(-c3nccn3C)nc(Nc3cc(C4CC4)[nH]n3)c12 [Compound 104, N-(5-Cyclopropyl-1H-pyrazol-3-yl)-5-methyl-2-(1-methyl-1H-imidazol-2-yl)-6-(1-methyl-1H-pyrazol-3-yl)pyrrolo[2,1-f][1,2,4]triazin-4-amine]	10 to 50 nM	
	1 to 10 nM	1 to 10 nM		< 1 nM		1 to 10 nM		Cc1c(-c2ccn(C)n2)cn2nc(-c3nccn3C)nc(Nc3cc4n(n3)CCO4)c12 [Compound 124, N-(5-Methyl-2-(1-methyl-1H-imidazol-2-yl)-6-(1-methyl-1H-pyrazol-3-yl)pyrrolo[2,1-f][1,2,4]triazin-4-yl)-2,3-dihydropyrazolo[5,1-b]oxazol-6-amine]	1 to 10 nM	
